1 molecule from BindingDB's records for doi:10.1016/j.ejmech.2021.113604 (China Pharmaceutical University, 2021) can be followed below.

As usually defined, the koff is the first-order rate constant of dissociation.

The target of one assay is Endoplasmin (Canis lupus familiaris, UniProt P41148). The assay can be described thus: Binding affinity to GST-tagged dog GRP94 (69 to 337 residues) expressed in Escherichia coli BL21 (DE3) assessed as dissociation constant at 0.37 to 10 uM measured by BLI assay.
Assay [1] concerns the target Heat shock protein HSP 90-alpha (Homo sapiens, UniProt P07900). In words: Binding affinity to His-tagged human N-terminal HSP90alpha (1 to 236 residues) expressed in Escherichia coli BL21 (DE3) assessed as dissociation constant at 1.1 to 30 uM measured by BLI assay.

Chain of Endoplasmin (P41148 whole entry, the tested form may be a part): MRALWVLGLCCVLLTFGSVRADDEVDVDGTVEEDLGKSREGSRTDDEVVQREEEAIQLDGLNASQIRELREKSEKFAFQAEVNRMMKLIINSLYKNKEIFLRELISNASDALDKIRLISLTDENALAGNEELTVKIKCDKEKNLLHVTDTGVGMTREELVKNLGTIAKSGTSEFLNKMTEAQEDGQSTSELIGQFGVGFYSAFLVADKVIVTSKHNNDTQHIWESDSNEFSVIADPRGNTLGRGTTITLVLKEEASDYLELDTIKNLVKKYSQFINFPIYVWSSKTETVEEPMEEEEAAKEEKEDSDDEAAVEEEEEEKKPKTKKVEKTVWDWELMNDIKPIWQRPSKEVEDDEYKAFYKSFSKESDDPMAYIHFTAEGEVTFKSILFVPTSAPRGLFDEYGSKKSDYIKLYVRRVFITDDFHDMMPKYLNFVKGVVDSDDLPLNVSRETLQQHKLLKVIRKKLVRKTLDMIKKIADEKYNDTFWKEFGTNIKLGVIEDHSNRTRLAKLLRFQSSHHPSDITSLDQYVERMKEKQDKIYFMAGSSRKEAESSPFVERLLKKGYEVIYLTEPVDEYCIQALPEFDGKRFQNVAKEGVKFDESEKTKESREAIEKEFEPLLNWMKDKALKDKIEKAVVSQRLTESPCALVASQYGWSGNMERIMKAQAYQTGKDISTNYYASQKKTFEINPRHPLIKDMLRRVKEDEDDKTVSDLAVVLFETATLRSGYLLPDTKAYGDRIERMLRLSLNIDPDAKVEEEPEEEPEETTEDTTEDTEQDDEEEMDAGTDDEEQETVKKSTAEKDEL

As to `CCCCC#Cc1ccc(N[C@H]2CC[C@H](O)CC2)c(C(N)=O)c1`, the results for the koff (at Endoplasmin; in assay [1]) were 0.0284 s⁻¹ and 0.114 s⁻¹, respectively.
